These compounds were tested against T1, PIP4K2C (Homo sapiens, UniProt Q8TBX8) (assay: HiBiT PIP4K2C degradation assay in MOLT-4 cells (endogenous PIP4K2C C-terminally tagged with HiBiT)). Settings: 6 hours of incubation time, rather than 24 hours; MOLT-4, top concentration 10 micromolar; read-out: HiBIT-degradation MOLT4 PIP4k2C DC50 (6 hours, marked *).
T1 sequence (Q8TBX8 1-421): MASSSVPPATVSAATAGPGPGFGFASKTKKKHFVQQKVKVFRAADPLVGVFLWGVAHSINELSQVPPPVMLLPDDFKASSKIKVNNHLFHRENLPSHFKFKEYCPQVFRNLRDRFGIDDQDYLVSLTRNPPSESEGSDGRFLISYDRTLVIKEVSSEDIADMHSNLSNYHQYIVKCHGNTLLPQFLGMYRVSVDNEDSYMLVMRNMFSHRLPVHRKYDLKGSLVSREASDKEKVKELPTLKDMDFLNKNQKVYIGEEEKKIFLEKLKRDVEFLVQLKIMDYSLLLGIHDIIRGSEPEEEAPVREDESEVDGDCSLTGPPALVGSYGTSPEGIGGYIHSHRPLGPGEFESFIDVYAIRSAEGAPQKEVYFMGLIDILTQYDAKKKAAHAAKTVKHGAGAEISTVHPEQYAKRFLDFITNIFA
Type: cell-based
Design: untagged in primary human PBMCs and monocyte-derived dendritic cells
Summary of the method: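 Luminescent HiBiT lytic readout of residual PIP4K2C-HiBiT (CRISPR knock-in, MOLT-4, phenol red-free RPMI-1640 + 10% FBS). Cells exposed 6 or 24 h at 37 C to compound, top 10 micromolar, 3-fold, 10 points, duplicate. Hill fit (Levenberg-Marquardt) gives DC50.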

DC50, < 500 nM:
O=C1CCC(Nc2ccc(C3CCN([C@H]4CC[C@H](C(=O)N[C@H]5CC[C@H](Nc6ncc(F)c(-c7ccnc(N8CCCCC8=O)c7)n6)CC5)CC4)CC3)c(F)c2)C(=O)N1 (stereo partly drawn) [Compound 571, trans-(1r,4R)-4-(4-(4-((2,6-dioxopiperidin-3-yl)amino)-2-fluorophenyl)piperidin-1-yl)-N-((1r,4R)-4-((5-fluoro-4-(2-(2-oxopiperidin-1-yl)pyridin-4-yl)pyrimidin-2-yl)amino)cyclohexyl)cyclohexane-1-carboxamide]
Cn1nc(C2CCC(=O)NC2=O)c2ccc(C3CCN(CC4CCN(C(=O)[C@H]5CC[C@H](Nc6ncc(F)c(-c7cccc(-n8ccccc8=O)c7)n6)CC5)CC4)CC3)cc21 (stereo partly drawn) [Compound 385, trans-3-(6-(1-((1-(4-((5-fluoro-4-(3-(2-oxopyridin-1(2H)-yl)phenyl)pyrimidin-2-yl)amino)cyclohexane-1-carbonyl)piperidin-4-yl)methyl)piperidin-4-yl)-1-methyl-1H-indazol-3-yl)piperidine-2,6-dione]
O=C1CCC(Nc2ccc(N3CCC(N4CCC(C(=O)N[C@H]5CC[C@H](Nc6ncc(F)c(-c7cccc(-c8ccc[nH]c8=O)c7)n6)CC5)CC4)C(F)C3)c(F)c2)C(=O)N1 (stereo partly shown) [Compound 406, 1′-(4-((2,6-dioxopiperidin-3-yl)amino)-2-fluorophenyl)-3′-fluoro-N-((1r,4r)-4-((5-fluoro-4-(3-(2-oxo-1,2-dihydropyridin-3-yl)phenyl)pyrimidin-2-yl)amino)cyclohexyl)-[1,4′-bipiperidine]-4-carboxamide]
O=C1CCC(Nc2ccc(N3CCN([C@H]4CC[C@H](NC(=O)[C@H]5CC[C@H](Nc6ncc(F)c(-c7cccc(N8CCCCC8=O)c7)n6)CC5)CC4)CC3)c(F)c2)C(=O)N1 (stereo partly drawn) [Compound 564, (1r,4R)—N-((1r,4R)-4-(4-(4-((2,6-dioxopiperidin-3-yl)amino)-2-fluorophenyl)piperazin-1-yl)cyclohexyl)-4-((5-fluoro-4-(3-(2-oxopiperidin-1-yl)phenyl)pyrimidin-2-yl)amino)cyclohexane-1-carboxamide]
O=C1CC[C@@H](Nc2ccc(N3CCN([C@H]4CC[C@H](C(=O)N[C@H]5CC[C@H](Nc6ncc(F)c(-c7cccc(N8CCCCC8=O)c7)n6)CC5)CC4)CC3)c(F)c2)C(=O)N1 (single isomer, unassigned) [Compound 445]
O=C1CCC(Nc2ccc(N3CCN(C4CCN(C(=O)O[C@H]5CC[C@H](Nc6ncc(F)c(-c7cccc(-c8ccccc8)c7)n6)CC5)CC4)CC3)c(F)c2)C(=O)N1 (stereo partly drawn) [Compound 664, trans-[4-[[5-fluoro-4-(3-phenylphenyl)pyrimidin-2-yl]amino]cyclohexyl]4-[4-[4-[(2,6-dioxo-3-piperidyl)amino]-2-fluoro-phenyl]piperazin-1-yl]piperidine-1-carboxylate]
O=C1CCC(Nc2ccc(N3CCC(N4CCC(C(=O)N[C@H]5CC[C@H](Nc6ncc(F)c(-c7cccc(N8CCCOC8=O)c7)n6)CC5)CC4)C(F)C3)c(F)c2)C(=O)N1 (stereo partly shown) [Compound 525, 1′-(4-((2,6-dioxopiperidin-3-yl)amino)-2-fluorophenyl)-3′-fluoro-N-((1r,4r)-4-((5-fluoro-4-(3-(2-oxo-1,3-oxazinan-3-yl)phenyl)pyrimidin-2-yl)amino)cyclohexyl)-[1,4′-bipiperidine]-4-carboxamide]
O=C1CCC(Nc2ccc(C3CCN([C@H]4CC[C@H](C(=O)N[C@H]5CC[C@H](Nc6ncc(F)c(-c7cccc(N8CCOCC8=O)c7)n6)CC5)CC4)CC3)c(F)c2)C(=O)N1 (stereo partly drawn) [Compound 568, trans-(1r,4R)-4-(4-(4-((2,6-dioxopiperidin-3-yl)amino)-2-fluorophenyl)piperidin-1-yl)-N-((1r,4R)-4-((5-fluoro-4-(3-(3-oxomorpholino)phenyl)pyrimidin-2-yl)amino)cyclohexyl)cyclohexane-1-carboxamide]
O=C1CC[C@H](Nc2ccc(C3CCN(CC4CCN(C(=O)[C@H]5CC[C@H](Nc6ncc(F)c(-c7cccc(N8CCCOC8=O)c7)n6)CC5)CC4)CC3)c(F)c2)C(=O)N1 (single isomer, unassigned) [Compound 600]
O=C1CCC(Nc2ccc(C3CCN(CCC4CCN(C(=O)O[C@H]5CC[C@H](Nc6ncc(F)c(-c7cccc(-c8ccccc8)c7)n6)CC5)CC4)CC3)c(F)c2)C(=O)N1 (stereo partly drawn) [Compound 469, trans-4-((4-([1,1′-biphenyl]-3-yl)-5-fluoropyrimidin-2-yl)amino)cyclohexyl 4-(2-(4-(4-((2,6-dioxopiperidin-3-yl)amino)-2-fluorophenyl)piperidin-1-yl)ethyl)piperidine-1-carboxylate]
O=C1CCC(Nc2ccc(C3CCN(CC4CCN(C(=O)[C@H]5CC[C@H](Nc6ncc(F)c(-c7cccc(-c8ccc[nH]c8=O)c7)n6)CC5)CC4)CC3(F)F)c(F)c2)C(=O)N1 (stereo partly drawn) [Compound 408, trans-3-[4-[3,3-difluoro-1-[[1-[4-[[5-fluoro-4-[3-(2-oxo-1H-pyridin-3-yl)phenyl]pyrimidin-2-yl]amino]cyclohexanecarbonyl]-4-piperidyl]methyl]-4-piperidyl]-3-fluoro-anilino]piperidine-2,6-dione]
O=C1CC[C@@H](Nc2ccc(C3CCN(CC4CCN(C(=O)[C@H]5CC[C@H](Nc6ncc(F)c(-c7cccc(N8CCCCC8=O)c7)n6)CC5)CC4)CC3)c(F)c2)C(=O)N1 (single isomer, unassigned) [Compound 448]
O=C1CCC(Nc2ccc(N3CCC(N4CCC(C(=O)N[C@H]5CC[C@H](Nc6ncc(F)c(-c7cccc(N8CCCOC8=O)c7)n6)CC5)CC4)C(F)(F)C3)c(F)c2)C(=O)N1 (stereo partly drawn) [Compound 500, trans-1′-(4-((2,6-dioxopiperidin-3-yl)amino)-2-fluorophenyl)-3′,3′-difluoro-N-(4-((5-fluoro-4-(3-(2-oxo-1,3-oxazinan-3-yl)phenyl)pyrimidin-2-yl)amino)cyclohexyl)-[1,4′-bipiperidine]-4-carboxamide]
O=C1CCC(Nc2ccc(N3CCC(N4CC5(CC(OC(=O)N6CCC(Nc7ncc(F)c(-c8cccc(-n9ccccc9=O)c8)n7)CC6)C5)C4)CC3)c(F)c2)C(=O)N1 (stereo not shown) [Compound 637, 2-(1-(4-((2,6-dioxopiperidin-3-yl)amino)-2-fluorophenyl)piperidin-4-yl)-2-azaspiro[3.3]heptan-6-yl 4-((5-fluoro-4-(3-(2-oxopyridin-1 (2H)-yl)phenyl)pyrimidin-2-yl)amino)piperidine-1-carboxylate]
O=C1CCC(Nc2ccc(N3CCN(C[C@H]4CC[C@H](CC(=O)N[C@H]5CC[C@H](Nc6ncc(F)c(-c7cccc(-c8ccc[nH]c8=O)c7)n6)CC5)CC4)CC3)c(F)c2)C(=O)N1 (stereo partly drawn) [Compound 703, trans-2-((1r,4R)-4-((4-(4-((2,6-dioxopiperidin-3-yl)amino)-2-fluorophenyl)piperazin-1-yl)methyl)cyclohexyl)-N-((1r,4R)-4-((5-fluoro-4-(3-(2-oxo-1,2-dihydropyridin-3-yl)phenyl)pyrimidin-2-yl)amino)cyclohexyl)acetamide]
O=C1CCC(Nc2ccc(N3CCN([C@H]4CC[C@H](NC(=O)[C@H]5CC[C@H](Nc6ncc(F)c(-c7cccc(-c8ccc[nH]c8=O)c7)n6)CC5)CC4)CC3)c(F)c2)C(=O)N1 (stereo partly drawn) [Compound 382, trans-N-(trans-4-(4-(4-((2,6-dioxopiperidin-3-yl)amino)-2-fluorophenyl)piperazin-1-yl)cyclohexyl)-4-((5-fluoro-4-(3-(2-oxo-1,2-dihydropyridin-3-yl)phenyl)pyrimidin-2-yl)amino)cyclohexane-1-carboxamide]

Same assay, conditions: 24 hours incubation, MOLT-4, top concentration 10 micromolar; read-out: HiBIT-degradation MOLT4 PIP4k2C 24 hours DC50

DC50, < 500 nM:
O=C1CCC(N2Cc3cc(C4CCN(C(=O)CN5CCC(C(=O)N6CCC(Nc7ncc(Cl)c(-c8cccc(-c9ccccc9)c8)n7)CC6)CC5)CC4)ccc3C2=O)C(=O)N1 (stereo not shown) [Compound 56, 3-(5-(1-(2-(4-(4-((4-([1,1′-biphenyl]-3-yl)-5-chloropyrimidin-2-yl)amino)piperidine-1-carbonyl)piperidin-1-yl)acetyl)piperidin-4-yl)-1-oxoisoindolin-2-yl)piperidine-2,6-dione]
O=C1CCC(N2Cc3c(OC4CCN(C5CCCN(CC(=O)N6CCC(Nc7ncc(Cl)c(-c8cccc(-c9ccc(F)cc9)c8)n7)CC6)C5)CC4)cccc3C2=O)C(=O)N1 (stereo not shown) [Compound 296, 3-(4-((1′-(2-(4-((5-chloro-4-(4′-fluoro-[1,1′-biphenyl]-3-yl)pyrimidin-2-yl)amino)piperidin-1-yl)-2-oxoethyl)-[1,3′-bipiperidin]-4-yl)oxy)-1-oxoisoindolin-2-yl)piperidine-2,6-dione]

Same assay, conditions: read-out: HiBIT-degradation MOLT4 PIP4k2C DC50 (6 hours, marked *); 6 hours of incubation time, rather than 24 hours; MOLT-4, top concentration 10 micromolar

DC50, < 500 nM:
O=C1CCC(Nc2ccc(N3CCN(C[C@H]4CC[C@H](CNC(=O)[C@H]5CC[C@H](Nc6ncc(F)c(-c7cccc(N8CCOCC8=O)c7)n6)CC5)CC4)CC3)c(F)c2)C(=O)N1 (stereo partly drawn) [Compound 586, trans-(1r,4R)—N-(((1r,4R)-4-((4-(4-((2,6-dioxopiperidin-3-yl)amino)-2-fluorophenyl)piperazin-1-yl)methyl)cyclohexyl)methyl)-4-((5-fluoro-4-(3-(3-oxomorpholino)phenyl)pyrimidin-2-yl)amino)cyclohexane-1-carboxamide]

— patent publication US20260355196A1, “INHIBITORS AND DEGRADERS OF PIP4K PROTEIN” (Larkspur Biosciences, Inc., priority 2023, published 2026)
